Results taken from patent US6525001B1, “Substituted pyrimidine and pyridine herbicides” (Mid-American Commercialization Corporation, priority 1997, dated 2003).

Columns and labels:
Type in all cases: in vivo
[1] = test system: bedstraw (Galium aparine); experiment: Test B pre-/postemergence; design: key: 0 is no effect; 10 is complete control; details: for Bedstraw plant response rating: Preemergence
Outline: (§1)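 Response scores run from 0, meaning no effect, to 10, meaning complete control, assigned by eye relative to controls twelve to sixteen days after spraying. Treatment was both preemergence on planted seed and postemergence on plants at the 1- to 4-leaf stage.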

corn (Zea mays) = experiment: Test B pre-/postemergence; design: key: 0 is no effect; 10 is complete control; details: for Corn plant response rating: Preemergence
Outline: as §1

[2] = test system: crabgrass (Digitaria sanguinalis); experiment: Test B pre-/postemergence; design: key: 0 is no effect; 10 is complete control; details: for Crabgrass plant response rating: Preemergence
Outline: as §1

[3] = test system: giant foxtail (Setaria faberii); experiment: Test B pre-/postemergence; design: key: 0 is no effect; 10 is complete control
Outline: as §1

[4] = test system: purple nutsedge (Cyperus rotundus); experiment: Test B pre-/postemergence; design: key: 0 is no effect; 10 is complete control
Outline: as §1

rape (Brassica napus) = experiment: Test B pre-/postemergence; design: key: 0 is no effect; 10 is complete control
Outline: as §1

soybean (Glycine max) = experiment: Test B pre-/postemergence; design: key: 0 is no effect; 10 is complete control
Outline: as §1

[5] = test system: sugar beet (Beta vulgaris); experiment: Test B pre-/postemergence; design: key: 0 is no effect; 10 is complete control
Outline: as §1

[6] = test system: velvetleaf (Abutilon theophrasti); experiment: Test B pre-/postemergence; design: key: 0 is no effect; 10 is complete control
Outline: as §1

[7] = test system: wheat (Triticum aestivum); experiment: Test B pre-/postemergence; design: key: 0 is no effect; 10 is complete control
Outline: as §1

wild oat (Avena fatua) = experiment: Test B pre-/postemergence; design: key: 0 is no effect; 10 is complete control
Outline: as §1

[8] = test system: bamyardgrass (Echinochloa crus-galli); experiment: Test B flood test
Outline: (§2)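 Each value is a visual injury score relative to controls, with 10 meaning complete control and 0 no effect. Evaluation took place twelve to sixteen days after the 2-leaf-stage plants were treated and kept in the greenhouse.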

[9] = test system: duck salad (Heteranthera limosa); experiment: Test B flood test
Outline: as §2

rice (Oryza sativa) = experiment: Test B flood test
Outline: as §2

[10] = test system: smallflower flatsedge (Cyperus difformis); experiment: Test B flood test
Outline: as §2

[11] = Rate 250 g/ha, Postemergence (so in the source)
[12] = Rate 62 g/ha, Postemergence (flood test)
[13] = Rate 125 g/ha, Postemergence, flood test
[14] = Rate 250 g/ha, Postemergence (flood test species)
[15] = Rate 125 g/ha, Postemergence section (flood test species)

`Cc1cnc(-n2cnc(C(F)(F)F)c2)nc1Cc1cccc(C(F)(F)F)c1` [Compound 44] was tested, and the “Plant response rating, Bedstraw” value ([1]; Rate 62 g/ha, Postemergence) was 8, the “Bedstraw plant response rating” value ([1]; Rate 62 g/ha) was 4 and the “Plant response rating, Bedstraw” value ([1]; Rate 125 g/ha, Postemergence) was 9. The “Bedstraw plant response rating” value ([1]; Rate 125 g/ha) was 5, the “Plant response rating, Bedstraw” value ([1]; Rate 250 g/ha, Postemergence) was 9 and the “Plant response rating, Bedstraw” value [1, 11] was 10. For the same molecule, the “Plant response rating, Corn” value (corn (Zea mays); Rate 62 g/ha, Postemergence) was 3, the “Corn plant response rating” value (corn (Zea mays); Rate 62 g/ha) was 0 and the “Plant response rating, Corn” value (corn (Zea mays); Rate 125 g/ha, Postemergence) was 3. The “Corn plant response rating” value (corn (Zea mays); Rate 125 g/ha) was 1, the “Plant response rating, Corn” value (corn (Zea mays); Rate 250 g/ha, Postemergence) was 3 and the “Plant response rating, Corn” value (corn (Zea mays); [11]) was 1. The “Plant response rating, Crabgrass” value ([2]; Rate 62 g/ha, Postemergence) was 3, the “Crabgrass plant response rating” value ([2]; Rate 62 g/ha) was 4 and the “Plant response rating, Crabgrass” value ([2]; Rate 125 g/ha, Postemergence) was 4. The “Crabgrass plant response rating” value ([2]; Rate 125 g/ha) was 4, the “Plant response rating, Crabgrass” value ([2]; Rate 250 g/ha, Postemergence) was 7 and the “Plant response rating, Crabgrass” value [2, 11] was 9. For the same molecule, the “Plant response rating, Giant foxtail” value ([3]; Rate 62 g/ha, Postemergence) was 2, the “Giant foxtail plant response rating” value ([3]; Rate 62 g/ha, Preemergence) was 4 and the “Giant foxtail plant response rating” value ([3]; Rate 125 g/ha, Postemergence) was 7. The “Giant foxtail plant response rating” value ([3]; Rate 125 g/ha, Preemergence) was 5, the “Plant response rating, Giant foxtail” value ([3]; Rate 250 g/ha, Postemergence) was 9 and the “Plant response rating, Giant foxtail” value [3, 11] was 9. The “Plant response rating, Nutsedge” value ([4]; Rate 62 g/ha, Postemergence) was 1, the “Nutsedge plant response rating” value ([4]; Rate 62 g/ha, Preemergence) was 2 and the “Nutsedge plant response rating” value ([4]; Rate 125 g/ha, Postemergence) was 2. For the same molecule, the “Plant response rating, Nutsedge” value ([4]; Rate 250 g/ha, Postemergence) was 3, the “Plant response rating, Rape” value (rape (Brassica napus); Rate 62 g/ha, Postemergence) was 9 and the “Rape plant response rating” value (rape (Brassica napus); Rate 62 g/ha, Preemergence) was 4. The “Rape plant response rating” value (rape (Brassica napus); Rate 125 g/ha, Postemergence) was 10, the “Rape plant response rating” value (rape (Brassica napus); Rate 125 g/ha, Preemergence) was 8 and the “Plant response rating, Rape” value (rape (Brassica napus); Rate 250 g/ha, Postemergence) was 10. For the same molecule, the “Plant response rating, Rape” value (rape (Brassica napus); [11]) was 10, the “Plant response rating, Soybean” value (soybean (Glycine max); Rate 62 g/ha, Postemergence) was 5 and the “Soybean plant response rating” value (soybean (Glycine max); Rate 62 g/ha, Preemergence) was 0. For the same molecule, the “Soybean plant response rating” value (soybean (Glycine max); Rate 125 g/ha, Postemergence) was 6, the “Plant response rating, Soybean” value (soybean (Glycine max); Rate 125 g/ha, Preemergence) was 2 and the “Plant response rating, Soybean” value (soybean (Glycine max); Rate 250 g/ha, Postemergence) was 6. For the same molecule, the “Plant response rating, Soybean” value (soybean (Glycine max); [11]) was 2, the “Plant response rating, Sugarbeets” value ([5]; Rate 62 g/ha, Postemergence) was 10 and the “Sugarbeets plant response rating” value ([5]; Rate 62 g/ha, Preemergence) was 9. For the same molecule, the “Sugarbeets plant response rating” value ([5]; Rate 125 g/ha, Postemergence) was 10, the “Plant response rating, Sugarbeets” value ([5]; Rate 125 g/ha, Preemergence) was 10 and the “Plant response rating, Sugarbeets” value ([5]; Rate 250 g/ha, Postemergence) was 10. The “Plant response rating, Sugarbeets” value [5, 11] was 10, the “Plant response rating, Velvetleaf” value ([6]; Rate 62 g/ha, Postemergence) was 8 and the “Velvetleaf plant response rating” value ([6]; Rate 62 g/ha, Preemergence) was 8. The “Velvetleaf plant response rating” value ([6]; Rate 125 g/ha, Postemergence) was 8, the “Plant response rating, Velvetleaf” value ([6]; Rate 125 g/ha, Preemergence) was 10 and the “Plant response rating, Velvetleaf” value ([6]; Rate 250 g/ha, Postemergence) was 9. The “Plant response rating, Velvetleaf” value [6, 11] was 10, the “Wheat plant response rating” value ([7]; Rate 62 g/ha, Postemergence) was 3 and the “Wheat plant response rating” value ([7]; Rate 62 g/ha, Preemergence) was 0. For the same molecule, the “Wheat plant response rating” value ([7]; Rate 125 g/ha, Postemergence) was 3, the “Plant response rating, Wheat” value ([7]; Rate 125 g/ha, Preemergence) was 1 and the “Plant response rating, Wheat” value ([7]; Rate 250 g/ha, Postemergence) was 3. For the same molecule, the “Plant response rating, Wheat” value [7, 11] was 3, the “Wild oats plant response rating” value (wild oat (Avena fatua); Rate 62 g/ha, Postemergence) was 4 and the “Wild oats plant response rating” value (wild oat (Avena fatua); Rate 62 g/ha, Preemergence) was 6. For the same molecule, the “Wild oats plant response rating” value (wild oat (Avena fatua); Rate 125 g/ha, Postemergence) was 4, the “Plant response rating, Wild oats” value (wild oat (Avena fatua); Rate 125 g/ha, Preemergence) was 7 and the “Plant response rating, Wild oats” value (wild oat (Avena fatua); Rate 250 g/ha, Postemergence) was 5. The “Plant response rating, Wild oats” value (wild oat (Avena fatua); [11]) was 9, the “Plant response rating, Barnyardgrass” value [8, 12] was 3 and the “Plant response rating, Barnyardgrass” value [8, 13] was 4. The “Plant response rating, Barnyardgrass” value [8, 14] was 4, the “Plant response rating, Ducksalad” value [9, 12] was 4 and the “Plant response rating, Ducksalad” value [9, 13] was 7. The “Plant response rating, Ducksalad” value [9, 14] was 9, the “Plant response rating, Rice” value (rice (Oryza sativa); [12]) was 5 and the “Rice plant response rating” value (rice (Oryza sativa); [15]) was 6. The “Plant response rating, Rice” value (rice (Oryza sativa); [14]) was 7, the “Plant response rating, S. Flatsedge” value [10, 12] was 9 and the “S. Flatsedge plant response rating” value [10, 15] was 9. The “Plant response rating, S. Flatsedge” value [10, 14] was 9.
